Assay results: article PMC10823514, “Target Identification of a Class of Pyrazolone Protein Aggregation Inhibitor Therapeutics for Amyotrophic Lateral Sclerosis” (ACS Central Science, 2023)
Entries after “also recorded” stand apart in the source; their conditions may differ. Like-named read-outs stand apart in the source and are kept apart here.

Key:
PC12 SOD1^G93A cells [1] = details: neuroprotection against MG-132-induced SOD1^G93A toxicity in PC12 cells, cited from earlier work
[2] = biological target: T1, 25 kDa protein band in PC12 SOD1^G93A cells (Rattus norvegicus, UniProt P62260); assay: Competition of PRAPP photoaffinity labeling of the 25 kDa band in PC12-SOD1^G93A cells; format: binding; details: for concentration-dependent disappearance of the 25 kDa protein band in competition with PRAPP: scenario 1
T1 construct: we identified a 25 kDa covalently modified protein band in the PC12 SOD1^G93A cell line; endogenous in cells; host or cells: PC12-SOD1^G93A cells (live-cell UV photolabeling, then lysis)
T1 sequence (P62260 1-255): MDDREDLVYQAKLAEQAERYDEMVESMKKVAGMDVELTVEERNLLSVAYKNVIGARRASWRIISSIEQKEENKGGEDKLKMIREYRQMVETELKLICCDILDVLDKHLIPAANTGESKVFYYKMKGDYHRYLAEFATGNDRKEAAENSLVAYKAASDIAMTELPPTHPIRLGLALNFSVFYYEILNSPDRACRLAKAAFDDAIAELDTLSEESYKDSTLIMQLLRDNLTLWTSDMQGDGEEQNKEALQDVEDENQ
Protocol: PC12-SOD1^G93A cells were cultured and grown to 90% confluency (in 6-well plates) and washed once with PBS followed by the addition of serum medium containing the appropriate analyte at the indicated concentrations. Three incubation scenarios were studied (at 37 °C): Scenario 1) 12 h preincubation with PRAPP in the absence of MG-132; Scenario 2) 12 h preincubation with PRAPP in the absence of MG-132 followed by an additional 24 h incubation (control); and Scenario 3) 12 h preincubation with PRAPP followed by the addition of MG-132 (100 nM) and an additional 24 h incubation. After incubation, the medium was discarded and cells were washed with PBS (1 × 300 μL). Fresh serum-free medium was added, and the cells were irradiated with UV light (312 nm, 120 V, 60 Hz, 0.2 A [Spectroline model EB-160C], distance ∼4 cm) for 15 min. The medium was removed, cells were washed with PBS (2 × 500 μL), and 200 μL of lysis buffer containing Tris HCl (25 mM, pH 7.6), NaCl (150 mM), 1% NP40, 1% sodium deoxycholate, 0.1% SDS, and protease inhibitor cocktail (Sigma-Aldrich, 1:100 v/v) was added to each well. Complete lysis was observed by a microscope after 10 min at 4 °C with agitation. Each lysate was centrifuged at 4 °C for 5 min at 13,000 rpm, and the resulting supernatant was concentrated with a centrifugal filter (Amicon Ultra Centrifugal Filters 3K cutoff, Millipore), normalized to 1.0 mg/mL by the Bradford assay, and analyzed immediately or stored at −80 °C for subsequent analysis.
In a darkened (wrapped with aluminum foil) Eppendorf tube, each lysate (30 μL [30 μg]) was incubated with 10 μL of the freshly prepared “click” premix containing CuSO4 (5 mM), sodium ascorbate (5 mM), TBTA (200 μM), and N3–Alexa-647 (50 μM) were added to PBS (50 mM, pH 7.4). The corresponding final concentrations within the lysate click incubation were: CuSO4 (1.25 mM), sodium ascorbate (1.25 mM), TBTA (50 μM), and N3–Alexa-647 (12.5 μM). The mixture was vortexed briefly and incubated for 1.5 h at 37 °C in the dark. NuPAGE LDS sample loading buffer (4 × 13 μL) was added, and the mixture was denatured in boiling water for 10 min. SDS-PAGE was performed on Novex Bis-Tris gel 4–12% with MES SDS running buffer (90 V constant for 30 min followed by 100 V for 90 min; load volume = 25 μL). Protein standards that gave appropriate visible and fluorescent bands for our application included the BioRad Precision Plus All Blue Protein Standard and Novex Pre-Stained Protein Standard. In-gel fluorescence was monitored (excitation λ = 635 nm; emission λ = 670 nm) using a Typhoon 9400 (GE Healthcare) fluorimager. Densitometric analysis and image refinement were carried out as needed using ImageJ software (NIH, open source). The contrast and brightness of images were modified using ImageJ and/or Microsoft Word to enhance visualization for publication purposes.

[3] = tested on: 25 kDa covalently modified band in HAP1 cells; assay: Photoaffinity labeling with HAP1 wild-type and Hsp27 knockout cells; format: binding; details: wild-type (WT) HAP1 cells
Text: First, we conducted photoaffinity labeling studies with wild-type (WT) HAP1 cells to verify the existence of the 25 kDa covalent modification that we observed in PC12 cells.
Figure 7 Photoaffinity Labeling Experiments with HAP1 cells. […] The nonspecific background modifications remain unchanged with increasing concentration of P3, further confirming the 25 kDa covalently modified band as a true target; (B) comparison of the photoaffinity labeling experiments with HAP1 wild-type (WT) cells and Hsp27 knockout (KO) cells at 15 μM PRAPP concentration.

[4] = parameters: method as in PMID 23828940; details: cell lysate, original CETSA protocol; cited from earlier work
PC12 SOD1^G93A cells [5] = assay: Neuroprotection against MG-132-induced toxicity in PC12 cells expressing mutant SOD1^G93A (calcein-AM viability); format: cell-based; details: Rattus norvegicus, PC-12, MG-132-induced toxicity, inactive photoreactive controls, read-out: EC50
Protocol: With this information in hand, we implemented a phenotypic drug discovery approach to identify a novel therapeutic for treating ALS. The study employed a rat PC12 cell-based assay that expresses SOD1^G93A mutation for screening a chemical library of more than 50,000 compounds to identify promising hits (Figure 1 compounds 3 and 4). The hits are based on attenuating proteasome inhibitor MG-132-induced SOD1^G93A cellular toxicity.
Viability EC50 values were determined according to the previously reported assay procedure.[43] Briefly, PC12 cells were seeded at 15,000 cells/well in 96-well plates, and the medium was changed to remove the doxycycline 4 days prior to compound addition. Compounds were assayed in 12-point dose–response experiments to determine the potency and efficacy. The highest compound concentration tested was 32 μM, which was decreased by half with each subsequent dose. After a 24 h incubation with the analytes, MG-132 (400 nM) was added and the cells were incubated at 37 °C for 24 h. The cells were washed twice with PBS. Calcein-AM was added at a final concentration of 1 μM for 20 min at room temperature, and the fluorescence intensity was read in a POLARstar fluorescence plate reader (BMG). EC50 values were determined by standardizing fluorescent signal to DMSO treated controls. […] The presented data represent the mean average of duplicate experiments.

14-3-3-E = biological target: T2, 14-3-3-E (Homo sapiens, UniProt P62258); assay: Fluorescent thermal shift assay (FTSA) with 14-3-3-E; format: binding; details: SYPRO orange
T2 construct: His-tag (TEV-cleavable) (cleaved yes); host or cells: E. coli (BL21)
T2 sequence (P62258 1-255): T1 sequence (P62260 1-255)
Protocol: His-tagged 14-3-3-E, B, and H plasmids were purchased from Addgene (plasmid ID# 31562, 39128, and 38814, respectively). E. coli (BL21) were transformed with extracted plasmids via heat shock and plated on selected media. Individual colonies were selected, grown, and sequenced to confirm gene presence. 1 L cultures were grown to an OD600 of 0.6 at 37 °C and 220 rpm. Protein expression was induced with 1 mM IPTG and expressed for 12 h at 100 rpm and room temperature (approximately 25 °C). Cells were spun down at 4000 rpm for 15 min at 4 °C and resuspended in lysis buffer containing 50 mM Tris (7.4), 150 mM NaCl, 0.08% DDM, 5 mM imidazole, and 5% glycerol (with an EDTA-free complete mini protease inhibitor cocktail). Cells were lysed via sonication, and the lysate was separated from cell debris by centrifugation at 15,000 rpm, 4 °C, for 45 min. The His-tagged protein was purified using QIAGEN Ni-NTA superflow columns, and the His-tag was removed with TEV protease. His-tag-removed proteins were further purified by size exclusion chromatography. His tag removal and size exclusion chromatography purification were done at the Northwestern University Protein Production core. 14-3-3-Q and 14-3-3-G proteins were purchased from Abchem (catalog numbers ab85270 and ab53869, respectively).
All of the FTSA experiments were conducted in HEPES buffer (60 mM HEPES, 150 mM NaCl, pH 7.4). A DMSO balanced 8-point dilution series of the compound in HEPES buffer was prepared in a 96-well assay plate (200, 100, 50, 25, 12.5, 6.25, 3.125, and 0 μM). Then, a 5 μL volume of the dilution series was transferred to a 384-well PCR plate using a multichannel pipet, and the plate was centrifuged at 1000 rpm for 2 min (the plate was covered with an adhesive aluminum seal). The protein sample was premixed at a concentration of 0.04 μg/μL with a 5X concentration of SYPRO orange in HEPES buffer, and a 5 μL aliquot was added to the compound wells. The plate was covered with an optical adhesive seal and was shaken for 2 min, followed by centrifugation at 1000 rpm for 2 min. The thermal scan was performed from 20 to 90 °C with a temperature gradient of 0.5 °C/min. The fluorescence was measured on a Bio-Rad CFX384 real-time PCR instrument.

[6] = hits and leads of the authors' earlier work, read-out: EC50

Question: Which results are given for `CN(Cc1cc(Cl)cc(Cl)c1)Cc1cc(=O)[nH][nH]1` [P3]?
Answer: EC50 (PC12 SOD1^G93A cells [1]; leads of the authors' earlier work, read-out: EC50 (NP = neuroprotection)): 0.4 µM; competitor to PRAPP ratio at complete disappearance of the band ([2]; 30 μM PRAPP): 32; EC50 ([2]; 30 μM PRAPP, scenario 1, n = 2, read-out: EC50 for the competition with PRAPP (25 kDa band intensity)): 26.7 µM; competition of PRAPP labeling, band 1 around 25 kDa [3]: concentration-dependent disappearance

Question: For `CN(Cc1cnc2nc(N)nc(N)c2n1)c1ccc(C(=O)N[C@@H](CCC(=O)O)C(=O)O)cc1` [methotrexate], which “drug concentration of maximum response in ITDR CETSA” value [4] is on record?
Answer: 100 to 250 µM

Question: Which EC50 (PC12 SOD1^G93A cells [5]) does the source give for `C#CCN(Cc1c(F)c(F)c(N=[N+]=[N-])c(F)c1F)Cc1cc(=O)n(C(C)=O)n1C(C)=O` [IPC1, 1,1′-(5-(((4-Azido-2,3,5,6-tetrafluorobenzyl)(prop-2-yn-1-yl)amino)methyl)-3-oxo-1H-pyrazole-1,2(3H)-diyl)bis(ethan-1-one)] here?
Answer: > 16 µM

Question: With `C#CCNCc1c(F)c(F)c(N=[N+]=[N-])c(F)c1F` [IPC2, N-(4-Azido-2,3,5,6-tetrafluorobenzyl)prop-2-yn-1-amine] as the compound, how does the EC50 (PC12 SOD1^G93A cells [5]) read?
Answer: > 16 µM

Question: Which EC50 (PC12 SOD1^G93A cells [1]; [6]) does the source give for `Cc1cc(SCc2cc(=O)[nH][nH]2)c(C)cc1Cl` [compound 4] here?
Answer: 0.4 µM

Question: Which “drug concentration of maximum response in ITDR CETSA” value [4] does the source give for `Cc1nc2ccc(CN(C)c3ccc(C(=O)N[C@@H](CCC(=O)O)C(=O)O)s3)cc2c(=O)[nH]1` [raltitrexed] here?
Answer: 100 to 250 µM

Question: For `CC(Oc1cc(C(F)(F)F)cc(C(F)(F)F)c1)C1CC(=O)CC(=O)C1` (stereo not drawn) [P1], which EC50 (PC12 SOD1^G93A cells [1]; [6]) is on record?
Answer: 0.3 µM

Question: And the “concentration-dependent disappearance of the 25 kDa protein band in competition with PRAPP” value ([2]; 30 μM PRAPP)?
Answer: not compete out the 25 kDa covalently modified band in a concentration -dependent manner; also recorded: did not show a quantifiable concentration-dependent disappearance

Question: What about the “25 kDa band intensity in competition with PRAPP” value ([2]; 480 μM P1 concentration) of the same compound?
Answer: slight reduction of the 25 kDa band intensity

Question: What about the “Tm shift (ΔTm)” value (14-3-3-E) of the same compound?
Answer: did not show a Tm shift

Question: With `CC1=NN(c2ccccc2)C(=O)C1` [edaravone, reference compound] as the compound, how does the “concentration-dependent disappearance of the 25 kDa protein band in competition with PRAPP” value ([2]; 30 μM PRAPP) read?
Answer: did not show a quantifiable concentration-dependent disappearance

Question: With `O=C1CC(=O)CC(c2ccc(F)cc2)C1` [compound 3] as the compound, how does the EC50 (PC12 SOD1^G93A cells [1]; [6]) read?
Answer: 0.8 µM
